Data: PubChem BioAssay AID1259408 (Genetic Toxicology Data Bank (GENE-TOX), 2018)
Active and inactive are the calls of the source. How the calls were made is not given here.

Tested on: GENE-TOX genotoxicity assays, various organisms and cells
Assay: GENE-TOX mutagenicity studies
Settings: for call: Assay Type: In vivo carcinogenicity studies, Assay Code: CCG+
[1] = Species/Cell Type: Nonhuman, Evaluation Type: Evaluation A (Pre-1980)
[2] = Species/Cell Type: Salmonella typhimurium (one or more of the five standard strains: TA98, TA100, TA1535, TA1537, and TA1538), Assay Type: Histidine reverse gene mutation, Ames assay, Assay Code: SAL+*, Activation: With metabolic activation, Evaluation Type: Evaluation A (Pre-1980)
[3] = Species/Cell Type: Human diploid fibroblasts, Assay Type: Unscheduled DNA synthesis (UDS) in vitro, DNA effects, Assay Code: UDH-, Evaluation Type: Evaluation A (Pre-1980)
[4] = Species/Cell Type: Saccharomyces cerevisiae, Assay Type: Mitotic recombination or gene conversion, Assay Code: YEH-, Evaluation Type: Evaluation A (Pre-1980)
[5] = Species/Cell Type: Salmonella typhimurium (one or more of the five standard strains: TA98, TA100, TA1535, TA1537, and TA1538), Assay Type: Histidine reverse gene mutation, Ames assay, Assay Code: SALT, Evaluation Type: Evaluation A (Pre-1980)

**Q.** Which results are given for `Cc1nc(N)cc2[nH]c3ccccc3c12`?
**A.** mutagenic call (Species/Cell Type: Chinese hamster ovary (CHO) cells, Assay Type: Forward gene mutation at the HPRT locus, Assay Code: CHO+*, Activation: With metabolic activation, Evaluation Type: Evaluation B (Post-1980)): active; positive; mutagenic call (Species/Cell Type: Human lymphocytes, Assay Type: Sister-chromatid exchange (SCE) in vitro, Assay Code: SCL+D, Dose Response: With dose response, Evaluation Type: Evaluation B (Post-1980)): active; positive; mutagenic call (Species/Cell Type: Human, Assay Type: Sister-chromatid exchange (SCE) in vitro, Assay Code: SC1+D, Dose Response: With dose response, Evaluation Type: Evaluation B (Post-1980)): active; positive; call [1]: active; positive; mutagenic call (Species/Cell Type: Nonhuman, Assay Type: Sister-chromatid exchange (SCE) in vitro, Assay Code: SC2+D*, Activation: With metabolic activation, Dose Response: With dose response, Evaluation Type: Evaluation B (Post-1980)): active; positive; mutagenic call (Species/Cell Type: Nonhuman, Assay Type: Sister-chromatid exchange (SCE) in vivo, Assay Code: SC3+D, Dose Response: With dose response, Evaluation Type: Evaluation B (Post-1980)): active; positive; mutagenic call [2]: active; positive

**Q.** Which mutagenic call (Species/Cell Type: Saccharomyces cerevisiae, Assay Type: Mitotic recombination or gene conversion, Assay Code: YEC-, Evaluation Type: Evaluation A (Pre-1980)) does the source give for `C#CC(C)N(C(=O)CCl)c1ccccc1` (stereo unspecified) here?
**A.** inactive; negative

**Q.** `CN(C)CCCN1c2ccccc2CCc2ccccc21` was tested. Which mutagenic call (Species/Cell Type: Human, Assay Type: Sister-chromatid exchange (SCE) in vitro, Assay Code: SC1T, Evaluation Type: Evaluation B (Post-1980)) did it give?
**A.** no conclusion

**Q.** And the mutagenic call (Species/Cell Type: Rodents, Sex: Male, Assay Type: Dominant lethal test, Assay Code: DLT-, Evaluation Type: Evaluation A (Pre-1980))?
**A.** inactive; negative

**Q.** `C1=Cc2cc3ccc4cccc5ccc(c2CC1)c3c45` was tested. Which mutagenic call (Species/Cell Type: Mouse prostate cells, Assay Type: Cell transformation, Assay Code: CTM-, Evaluation Type: Evaluation A (Pre-1980)) did it give?
**A.** inactive; negative

**Q.** For `CC1CCCCC1NC(=O)Nc1ccccc1` (stereo unspecified), which mutagenic call (Species/Cell Type: Bacillus subtilis (H17 vs M45), Assay Type: Rec-assay, spot test, DNA effects (bacterial DNA repair), Assay Code: REWT, Evaluation Type: Evaluation A (Pre-1980)) is on record?
**A.** no conclusion

**Q.** What about the mutagenic call (Species/Cell Type: Drosophila melanogaster, Assay Type: Sex-linked recessive lethal gene mutation, Assay Code: SRL-, Evaluation Type: Evaluation A (Pre-1980)) of the same compound?
**A.** inactive; negative

**Q.** What about the mutagenic call (Species/Cell Type: Escherichia coli WP2 UVRA, Assay Type: Tryptophan reverse gene mutation, Assay Code: WPU-*, Activation: With metabolic activation, Evaluation Type: Evaluation A (Pre-1980)) of the same compound?
**A.** inactive; negative

**Q.** And the mutagenic call (Species/Cell Type: Escherichia coli polA (W3119 vs P3478), Assay Type: Rec-assay, DNA effects (bacterial DNA repair), Assay Code: RE1T, Evaluation Type: Evaluation A (Pre-1980))?
**A.** no conclusion

**Q.** And the mutagenic call [3]?
**A.** inactive; negative

**Q.** What about the mutagenic call [4] of the same compound?
**A.** inactive; negative

**Q.** What about the mutagenic call (Species/Cell Type: Salmonella typhimurium (one or more of the five standard strains: TA98, TA100, TA1535, TA1537, and TA1538), Assay Type: Histidine reverse gene mutation, Ames assay, Assay Code: SAL-, Evaluation Type: Evaluation A (Pre-1980)) of the same compound?
**A.** inactive; negative

**Q.** Which results are given for `Cc1ccccc1N`?
**A.** mutagenic call (Species/Cell Type: Escherichia coli polA (W3119 vs P3478), Assay Type: Rec-assay, DNA effects (bacterial DNA repair), Assay Code: RE1+, Evaluation Type: Evaluation A (Pre-1980)): active; positive; mutagenic call (Species/Cell Type: Fischer rat embryo (RLV/1706) cells, Assay Type: Cell transformation, viral enhanced, Assay Code: CTR+, Evaluation Type: Evaluation A (Pre-1980)): active; positive; mutagenic call (Species/Cell Type: Mammalian polychromatic erythrocytes, Assay Type: Micronucleus test, chromosome aberrations, Assay Code: MNTT, Evaluation Type: Evaluation A (Pre-1980)): no conclusion; mutagenic call (Species/Cell Type: Mouse, Sex: Male, Assay Type: Sperm morphology, Assay Code: SPI-, Evaluation Type: Evaluation A (Pre-1980)): inactive; negative; call [1]: active; positive; mutagenic call (Species/Cell Type: Nonhuman, Assay Type: Sister-chromatid exchange (SCE) in vitro, Assay Code: SC2+D, Dose Response: With dose response, Evaluation Type: Evaluation B (Post-1980)): active; positive; mutagenic call (Species/Cell Type: Nonhuman, Assay Type: Sister-chromatid exchange (SCE) in vivo, Assay Code: SC3+, Evaluation Type: Evaluation B (Post-1980)): active; positive; mutagenic call [4]: inactive; negative; mutagenic call [5]: no conclusion

**Q.** `CC(=O)Nc1ccc(CC(=O)c2ccccc2)cc1` was tested. Which mutagenic call [5] did it give?
**A.** no conclusion

**Q.** How did the mutagenic call (Species/Cell Type: Drosophila melanogaster, Assay Type: Aneuploidy, partial sex chromosome loss, chromosome aberrations, Assay Code: DAPT, Evaluation Type: Evaluation A (Pre-1980)) turn out when `CC1CCN(N=O)CC1` was run?
**A.** no conclusion

**Q.** And the mutagenic call (Species/Cell Type: Drosophila melanogaster, Assay Type: Aneuploidy, whole sex chromosome loss, chromosome aberrations, Assay Code: DACT, Evaluation Type: Evaluation A (Pre-1980))?
**A.** no conclusion

**Q.** And the mutagenic call (Species/Cell Type: Drosophila melanogaster, Assay Type: Sex-linked recessive lethal gene mutation, Assay Code: SRL+, Evaluation Type: Evaluation A (Pre-1980))?
**A.** active; positive

**Q.** And the mutagenic call (Species/Cell Type: Saccharomyces cerevisiae, Assay Type: Forward gene mutation, Assay Code: YEF+*, Activation: With metabolic activation, Evaluation Type: Evaluation A (Pre-1980))?
**A.** active; positive

**Q.** And the mutagenic call [2]?
**A.** active; positive

**Q.** Which mutagenic call [3] does the source give for `Nc1c2ccccc2nc2ccccc12` here?
**A.** inactive; negative

**Q.** And the mutagenic call (Species/Cell Type: Nonhuman, Assay Type: Sister-chromatid exchange (SCE) in vitro, Assay Code: SC2+, Evaluation Type: Evaluation B (Post-1980))?
**A.** active; positive

**Q.** And the mutagenic call (Species/Cell Type: Salmonella typhimurium (one or more of the five standard strains: TA98, TA100, TA1535, TA1537, and TA1538), Assay Type: Histidine reverse gene mutation, Ames assay, Assay Code: SAL+, Evaluation Type: Evaluation A (Pre-1980))?
**A.** active; positive
